Experiment in all cases: Growth inhibition GI50 in vitro (CCK8/MTT, 72 h)
Common to all, as to type: cell-based, human

The test system of assay [1] is H1975 (EGFR L858R/T790M). The note with it: Homo sapiens, NCI-H1975; EGFR mutant cell line; range of GI50; read-out: GI50 H1975.
Assay [2] has as its system HCC827 (EGFR dE746-A750). The note with it: Homo sapiens, HCC827; EGFR mutant cell line; range of GI50; read-out: GI50 HCC827.
The test system of assay [3] is PC-9 (EGFR dE746-A750). The note with it: Homo sapiens; EGFR mutant cell line; range of GI50; read-out: GI50 PC-9.
Assay [4] has as its system PC-9ER (EGFR delE746-A750/T790M). The note with it: Homo sapiens, PC-9/ER; EGFR mutant cell line; range of GI50; read-out: GI50 PC9ER.
Assay [5] concerns N87 (HER2 Amp). The note with it: Homo sapiens; HER2 positive cell line; range of GI50; read-out: GI50 N87.
Assay [6] relates to AU565 (Her2 amp). The note with it: Homo sapiens, AU565; HER2 positive cell line; range of GI50; read-out: GI50 AU-565.
Assay [7] deals with SK-BR-3 (Her2 amp). The note with it: Homo sapiens, SK-BR-3; HER2 positive cell line; range of GI50; read-out: GI50 SK-BR-3.
Assay [8] deals with A431 (EGFR WT, amplification and high expression). The note with it: Homo sapiens, A-431; EGFR wild type cell line; range of GI50; read-out: GI50 A431.
Assay [9] concerns A549 (EGFR WT). The note with it: Homo sapiens, A549; EGFR wild type cell line; range of GI50; read-out: GI50 A549.
The subject of assay [10] is H1299 (EGFR wt, Nras Q61K). The note with it: Homo sapiens, NCI-H1299; EGFR wild type cell line; range of GI50; read-out: GI50 H1299.
Assay [11] concerns H460 (EGFR wt, Kras G61H). The note with it: Homo sapiens, NCI-H460; EGFR wild type cell line; range of GI50; read-out: GI50 H460.

A value given as a limit tells only on which side of the number the result lay.

Usually GI50 stands for the concentration that inhibits growth by half. Consider `C=CC(=O)Nc1cc(Nc2cc(-c3cn(C4CCCC4)c4ccc(F)cc34)ncn2)c(OC)cc1N(C)CCN(C)C` [Compound 193, N-(5-(6-(5-fluoro-1-cyclopentyl-1H-indol-3-yl)-pyrimidin-4-ylamino)-4-methoxyl-2-((2-dimethylamino-ethyl)-methyl-amino)-phenyl)-acrylamide], for which the GI50 in [1] was 10 to 100 nM; in assay [2], under 10 nM; in [3], under 10 nM; in [4] it was 10 to 100 nM; in assay [5], 100 to 1000 nM; in assay [6] it was 100 to 1000 nM. In addition, the GI50 in assay [7], in assay [8], in assay [9], in assay [10] and in [11] was over 1000 nM in each case.

In the case of `C=CC(=O)Nc1cc(Nc2ncnc(Nc3cccc(Cl)c3)n2)c(OC)cc1N(C)CCN(C)C` [Compound 108, N-(5-(4-(3-chloro-phenylamino)-[1,3,5]triazin-2-ylamino)-2-((2-dimethylamino-ethyl)-methyl-amino)-4-methoxyl-phenyl)-acrylamide], the GI50 in [1] was 10 to 100 nM; in [2] it was under 10 nM; in assay [3], under 10 nM; in [4] it was under 10 nM; in assay [5], under 10 nM; in [6], 10 to 100 nM. Besides, the 50% growth inhibitory concentration (GI50) was 10 to 100 nM in assay [7]; 100 to 1000 nM in assay [8]; over 1000 nM in assay [9]; over 1000 nM in assay [10]; over 1000 nM in [11].

Take `C#Cc1cccc(Nc2cc(Nc3cc(NC(=O)C=C)c(N(C)CCN(C)C)cc3OC)ncn2)c1` [Compound 135, N-(5-(6-(3-alkynyl-phenylamino)-pyrimidin-4-ylamino)-2-((2-dimethylamino-ethyl)-methyl-amino)-4-methoxyl-phenyl)-acrylamide]: the GI50 in assay [1] was under 10 nM; in assay [2] it was under 10 nM; in assay [3], under 10 nM; in assay [4], under 10 nM; in [5], 10 to 100 nM; in assay [6] it was under 10 nM. The GI50 in assay [7] is under 10 nM; in assay [8], 10 to 100 nM; in assay [9], over 1000 nM; in [10], over 1000 nM; in assay [11], over 1000 nM.

`C=CC(=O)Nc1cc(Nc2cc(Nc3cccc(C(F)(F)F)c3)ncn2)c(OC)cc1N(C)CCN(C)C` [Compound 134]: the GI50 in assay [1] was 10 to 100 nM; in assay [2], under 10 nM; in assay [3], under 10 nM; in [4], 10 to 100 nM; in assay [5], 10 to 100 nM; in [6], 10 to 100 nM. The GI50 was 10 to 100 nM in [7]; 100 to 1000 nM in [8]; over 1000 nM in assay [9]; over 1000 nM in assay [10]; over 1000 nM in assay [11].

`C=CC(=O)Nc1cc(Nc2nccc(-n3ccc4cc(F)ccc43)n2)c(OC)cc1N(C)CCN(C)C` [Compound 83]: the GI50 in assay [1] was under 10 nM; in assay [2], under 10 nM; in [3] it was 10 to 100 nM; in [4], 10 to 100 nM; in assay [5], 10 to 100 nM; in assay [6] it was 100 to 1000 nM. The GI50 in [7] was 100 to 1000 nM; in assay [8] it was 100 to 1000 nM; in assay [9], over 1000 nM; in [10], over 1000 nM; in [11], over 1000 nM.

As to `C=CC(=O)Nc1cc(Nc2nccc(-n3ccc4ccc(OC)cc43)n2)c(OC)cc1N(C)CCN(C)C` [Compound 58], the GI50 in assay [1] was 10 to 100 nM; in assay [2], 10 to 100 nM; in assay [3], 10 to 100 nM; in [4], 10 to 100 nM; in assay [5], 100 to 1000 nM; in assay [6], 100 to 1000 nM. In addition, the GI50 in [7] is 100 to 1000 nM; in assay [8] it was 100 to 1000 nM; in assay [9], over 1000 nM; in assay [10], over 1000 nM; in assay [11] it was over 1000 nM.

For `C=CC(=O)Nc1cc(Nc2ncnc(Nc3cccc(Cl)c3F)n2)c(OC)cc1N(C)CCN(C)C` [Compound 110, N-(5-(4-(3-chloro-2-fluoro-phenylamino)-[1,3,5]triazin-2-ylamino)-2-((2-dimethylamino-ethyl)-methyl-amino)-4-methoxyl-phenyl)-acrylamide], the GI50 in [1] was 10 to 100 nM; in [2], under 10 nM; in assay [3], under 10 nM; in [4], under 10 nM; in assay [5] it was under 10 nM; in [6] it was 10 to 100 nM. Besides, the GI50 in assay [7] is 10 to 100 nM; in assay [8], 100 to 1000 nM; in assay [9] it was over 1000 nM; in assay [10], over 1000 nM; in assay [11], over 1000 nM.

Turning to `C=CC(=O)Nc1cc(Nc2cc(Nc3cccc(Br)c3)ncn2)c(OC)cc1N(C)CCN(C)C` [Compound 133, N-(5-(6-(3-bromophenylamino)-pyrimidin-4-ylamino)-2-((2-dimethylamino-ethyl)-methyl-amino)-4-methoxyl-phenyl)-acrylamide], the GI50 in [1], in assay [2], in assay [3], in assay [4], in [5] and in [6] was under 10 nM in each case. Also, the GI50 is under 10 nM in assay [7]; 10 to 100 nM in [8]; over 1000 nM in assay [9]; over 1000 nM in assay [10]; over 1000 nM in [11].

For the molecule `C=CC(=O)Nc1cc(Nc2nccc(Nc3cccc(F)c3)n2)c(OC)cc1N(C)CCN(C)C` [Compound 3, N-(5-(4-(3-fluoro-phenylamino)-pyrimidin-2-ylamino)-2-(2-(dimethylamino-ethyl)-methyl-amino)-4-methoxyl-phenyl)-acrylamide], the GI50 in [1] is 10 to 100 nM; in [2] it was under 10 nM; in assay [3], under 10 nM; in assay [4], under 10 nM; in assay [5], 10 to 100 nM; in [6], 10 to 100 nM. Further, the GI50 is 10 to 100 nM in assay [7]; 100 to 1000 nM in assay [8]; over 1000 nM in assay [9]; over 1000 nM in assay [10]; over 1000 nM in assay [11].

For the origin of these results see patent publication US10342796B2, “Acrylanilide derivative, preparation method, and applications thereof in pharmacy” (Ancureall Pharmaceutical (Shanghai) Co., Ltd., priority 2015, dated 2019).
